# From patent US5288720A, “Angiotensin II receptor blocking 2,3,6 substituted quinazolinones” (American Cyanamid Company, priority 1993, dated 1994)
# Test system: ANGIOTENSIN II VASOPRESSOR RESPONSE
# Test: AII Challenge: blockade of angiotensin II vasopressor response in conscious SHR
# Assay type: in vivo, rat (Conscious Male Okamoto-Aoki SHR)
# Settings: SHR n=2
# In short: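 Percent blockade is derived from the systolic pressure rise in mmHg, taking each rat's own predose response as 100%. Rats were conscious male Okamoto-Aoki SHR, 16-20 weeks, ~330 g, with aortic and caval cannulas under local procaine. Compound went i.v., i.p. or orally, then angiotensin II challenges (0.05 and 0.1 ug/kg i.v.) at 30-300 min.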
# [1] = 3 mg/kg i.v., AII 0.05 mcg/kg IV, 30 min post dose
# [2] = 3 mg/kg i.v., AII 0.05 mcg/kg IV, 60 min post dose
# [3] = 3 mg/kg i.v., AII 0.05 mcg/kg IV, 90 min post dose
# [4] = 3 mg/kg i.v., AII 0.05 mcg/kg IV, 120 min post dose
# [5] = 3 mg/kg i.v., AII 0.05 mcg/kg IV, 180 min post dose
# [6] = 3 mg/kg i.v., AII 0.05 mcg/kg IV, 240 min post dose
# [7] = 3 mg/kg i.v., AII 0.05 mcg/kg IV, 300 min post dose
# [8] = 3 mg/kg i.v., AII 0.1 mcg/kg IV, 30 min post dose
# [9] = 3 mg/kg i.v., AII 0.1 mcg/kg IV, 60 min post dose
# [10] = 3 mg/kg i.v., AII 0.1 mcg/kg IV, 90 min post dose
# [11] = 3 mg/kg i.v., AII 0.1 mcg/kg IV, 120 min post dose
# [12] = 3 mg/kg i.v., AII 0.1 mcg/kg IV, 180 min post dose
# [13] = 3 mg/kg i.v., AII 0.1 mcg/kg IV, 240 min post dose
# [14] = 3 mg/kg i.v., AII 0.1 mcg/kg IV, 300 min post dose
# [15] = 3 mg/kg p.o., AII 0.05 mcg/kg IV, 30 min post dose
# [16] = 3 mg/kg p.o., AII 0.05 mcg/kg IV, 60 min post dose
# [17] = 3 mg/kg p.o., AII 0.05 mcg/kg IV, 90 min post dose
# [18] = 3 mg/kg p.o., AII 0.05 mcg/kg IV, 120 min post dose
# [19] = 3 mg/kg p.o., AII 0.05 mcg/kg IV, 180 min post dose
# [20] = 3 mg/kg p.o., AII 0.1 mcg/kg IV, 30 min post dose
# [21] = 3 mg/kg p.o., AII 0.1 mcg/kg IV, 60 min post dose
# [22] = 3 mg/kg p.o., AII 0.1 mcg/kg IV, 90 min post dose
# [23] = 3 mg/kg p.o., AII 0.1 mcg/kg IV, 120 min post dose
# [24] = 3 mg/kg p.o., AII 0.1 mcg/kg IV, 180 min post dose
# [25] = 3 mg/kg p.o., AII 0.05 mcg/kg IV, 240 min post dose
# [26] = 3 mg/kg p.o., AII 0.1 mcg/kg IV, 240 min post dose
smiles,measurement,setting,value
"CCCCc1nc2ccc(C(OC)C3CCCO3)cc2c(=O)n1Cc1ccc(-c2ccccc2-c2nn[nH]n2)cc1 (single isomer, unassigned; isomer 1) [Example 23, 2-Butyl-6-[methoxy(tetrahydro-2-furanyl)methyl-3-[[2'-(1H-tetrazol-5-yl)[1,1'-biphenyl]-4-yl]-methyl]-4(3e,uns/H/ )-quinazolinone isomer 1]",% Inhibition of AII vasopressor response,[1],97%
same,Average Change (systolic blood pressure response to AII),[1],1 mmHg
same,% Inhibition of AII vasopressor response,[2],93%
same,Average Change (systolic blood pressure response to AII),[2],2.5 mmHg
same,% Inhibition of AII vasopressor response,[3],79%
same,Average Change (systolic blood pressure response to AII),[3],7.5 mmHg
same,% Inhibition of AII vasopressor response,[4],79%
same,Average Change (systolic blood pressure response to AII),[4],7.5 mmHg
same,% Inhibition of AII vasopressor response,[5],79%
same,Average Change (systolic blood pressure response to AII),[5],7.5 mmHg
same,% Inhibition of AII vasopressor response,[6],60%
same,Average Change (systolic blood pressure response to AII),[6],14 mmHg
same,% Inhibition of AII vasopressor response,[7],50%
same,Average Change (systolic blood pressure response to AII),[7],17.5 mmHg
same,% Inhibition of AII vasopressor response,[8],96%
same,Average Change (systolic blood pressure response to AII),[8],1.5 mmHg
same,% Inhibition of AII vasopressor response,[9],84%
same,Average Change (systolic blood pressure response to AII),[9],6.5 mmHg
same,% Inhibition of AII vasopressor response,[10],79%
same,Average Change (systolic blood pressure response to AII),[10],8.5 mmHg
same,% Inhibition of AII vasopressor response,[11],81%
same,Average Change (systolic blood pressure response to AII),[11],7.5 mmHg
same,% Inhibition of AII vasopressor response,[12],75%
same,Average Change (systolic blood pressure response to AII),[12],10 mmHg
same,% Inhibition of AII vasopressor response,[13],50%
same,Average Change (systolic blood pressure response to AII),[13],20 mmHg
same,% Inhibition of AII vasopressor response,[14],50%
same,Average Change (systolic blood pressure response to AII),[14],20 mmHg
same,% Inhibition of AII vasopressor response,[15],58%
same,Average Change (systolic blood pressure response to AII),[15],20 mmHg
same,% Inhibition of AII vasopressor response,[16],21%
same,Average Change (systolic blood pressure response to AII),[16],37.5 mmHg
same,% Inhibition of AII vasopressor response,[17],37%
same,Average Change (systolic blood pressure response to AII),[17],30 mmHg
same,% Inhibition of AII vasopressor response,[18],47%
same,Average Change (systolic blood pressure response to AII),[18],25 mmHg
same,% Inhibition of AII vasopressor response,[19],21%
same,Average Change (systolic blood pressure response to AII),[19],37.5 mmHg
same,% Inhibition of AII vasopressor response,[20],18%
same,Average Change (systolic blood pressure response to AII),[20],45 mmHg
same,% Inhibition of AII vasopressor response,[21],14%
same,Average Change (systolic blood pressure response to AII),[21],47.5 mmHg
same,% Inhibition of AII vasopressor response,[22],32%
same,Average Change (systolic blood pressure response to AII),[22],37.5 mmHg
same,% Inhibition of AII vasopressor response,[23],36%
same,Average Change (systolic blood pressure response to AII),[23],35 mmHg
same,% Inhibition of AII vasopressor response,[24],9%
"CCCCc1nc2ccc(C(O)C3CCN(C)C3=O)cc2c(=O)n1Cc1ccc(-c2ccccc2-c2nn[nH]n2)cc1 (single isomer, unassigned; isomer 1) [Example 32, 2-Butyl-6-[hydroxy(1-methyl-2-oxo-3-pyrrolidinyl)methyl]-3-[[2'-(1e,uns/H/ -tetrazol-5-yl)[1,1'-biphenyl]-4-yl]methyl]-4(3H)-quinazolinone isomer 1]",% Inhibition of AII vasopressor response,[1],100%
same,Average Change (systolic blood pressure response to AII),[1],0 mmHg
same,% Inhibition of AII vasopressor response,[2],89%
same,Average Change (systolic blood pressure response to AII),[2],2.5 mmHg
same,% Inhibition of AII vasopressor response,[3],89%
same,Average Change (systolic blood pressure response to AII),[3],2.5 mmHg
same,% Inhibition of AII vasopressor response,[4],89%
same,Average Change (systolic blood pressure response to AII),[4],2.5 mmHg
same,% Inhibition of AII vasopressor response,[5],68%
same,Average Change (systolic blood pressure response to AII),[5],7.5 mmHg
same,% Inhibition of AII vasopressor response,[6],26%
same,Average Change (systolic blood pressure response to AII),[6],17.5 mmHg
same,% Inhibition of AII vasopressor response,[7],-13%
same,Average Change (systolic blood pressure response to AII),[7],26.5 mmHg
same,% Inhibition of AII vasopressor response,[8],100%
same,Average Change (systolic blood pressure response to AII),[8],0 mmHg
same,% Inhibition of AII vasopressor response,[9],96%
same,Average Change (systolic blood pressure response to AII),[9],1.5 mmHg
same,% Inhibition of AII vasopressor response,[10],88%
same,Average Change (systolic blood pressure response to AII),[10],5 mmHg
same,% Inhibition of AII vasopressor response,[11],94%
same,Average Change (systolic blood pressure response to AII),[11],2.5 mmHg
same,% Inhibition of AII vasopressor response,[12],53%
same,Average Change (systolic blood pressure response to AII),[12],20 mmHg
same,% Inhibition of AII vasopressor response,[13],24%
same,Average Change (systolic blood pressure response to AII),[13],32.5 mmHg
same,% Inhibition of AII vasopressor response,[14],0%
same,Average Change (systolic blood pressure response to AII),[14],42.5 mmHg
same,% Inhibition of AII vasopressor response,[15],0%
same,Average Change (systolic blood pressure response to AII),[15],32.5 mmHg
same,% Inhibition of AII vasopressor response,[16],46%
same,Average Change (systolic blood pressure response to AII),[16],17.5 mmHg
same,% Inhibition of AII vasopressor response,[17],62%
same,Average Change (systolic blood pressure response to AII),[17],12.5 mmHg
same,% Inhibition of AII vasopressor response,[18],46%
same,Average Change (systolic blood pressure response to AII),[18],17.5 mmHg
same,% Inhibition of AII vasopressor response,[19],11%
same,Average Change (systolic blood pressure response to AII),[19],29 mmHg
same,% Inhibition of AII vasopressor response,[25],31%
same,Average Change (systolic blood pressure response to AII),[25],22.5 mmHg
same,% Inhibition of AII vasopressor response,[20],27%
same,Average Change (systolic blood pressure response to AII),[20],27.5 mmHg
same,% Inhibition of AII vasopressor response,[21],27%
same,Average Change (systolic blood pressure response to AII),[21],27.5 mmHg
same,% Inhibition of AII vasopressor response,[22],40%
same,Average Change (systolic blood pressure response to AII),[22],22.5 mmHg
same,% Inhibition of AII vasopressor response,[23],28%
same,Average Change (systolic blood pressure response to AII),[23],27 mmHg
same,% Inhibition of AII vasopressor response,[24],13%
same,Average Change (systolic blood pressure response to AII),[24],32.5 mmHg
same,% Inhibition of AII vasopressor response,[26],23%
same,Average Change (systolic blood pressure response to AII),[26],29 mmHg
